Test results as given in publication PMC7541927 (Preventive Nutrition and Food Science, 2020).

Molecular target: T1, α-amylase from porcine pancreas (Sus scrofa, UniProt P00690)
T1 sequence (P00690 16-511): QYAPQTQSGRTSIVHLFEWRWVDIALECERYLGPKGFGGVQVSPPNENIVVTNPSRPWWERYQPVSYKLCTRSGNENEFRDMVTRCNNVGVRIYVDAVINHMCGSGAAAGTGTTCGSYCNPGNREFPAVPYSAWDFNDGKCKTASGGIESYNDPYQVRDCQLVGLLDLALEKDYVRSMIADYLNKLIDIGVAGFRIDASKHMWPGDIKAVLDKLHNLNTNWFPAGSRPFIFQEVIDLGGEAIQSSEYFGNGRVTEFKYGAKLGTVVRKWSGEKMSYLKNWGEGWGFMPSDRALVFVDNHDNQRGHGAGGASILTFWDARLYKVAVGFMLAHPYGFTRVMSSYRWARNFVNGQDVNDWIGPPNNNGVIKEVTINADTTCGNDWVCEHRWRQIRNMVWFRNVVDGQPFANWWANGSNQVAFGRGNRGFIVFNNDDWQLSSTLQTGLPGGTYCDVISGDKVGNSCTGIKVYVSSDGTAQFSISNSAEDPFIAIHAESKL
Assay: biochemical

SMILES: O=C(O)CC(O)(CC(=O)O)C(=O)O [citric acid]
- IC50: 640 ± 40 µM
